According to the supplement of paper PMC11061612:

Experiments:
Assay in all cases: combination Emax (second highest fraction inhibited in the dose matrix, 72 h); higher = more inhibition; extreme values may be limits of the assay
[1] = tested on: SW872 (Other Solid Carcinomas)
Method in brief: (§1)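 Cell lines grown in DMEM/F12 or RPMI with 10% FBS were plated in 1536-well plates and held 24 hours at 37°C, 5% CO2 before 72 hours of exposure to two-drug dose matrices, with DMSO typically at 0.2%. CellTiter-Glo 2.0 luminescence gave viability, which was converted to inhibition. Vehicle wells were set to 0 and blank wells to 1. Combination Emax is the second-highest inhibition in the matrix, and Bliss excess is the observed combination effect minus the expected EA + EB − EA·EB, where EA and EB are the single-agent effects.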

[2] = tested on: LC-1-sq (Squamous Cell Lung Carcinoma)
Method in brief: as §1

[3] = tested on: SKN (Other Solid Carcinomas)
Method in brief: as §1

[4] = tested on: MOG-G-UVW (Low Grade Glioma)
Method in brief: as §1

Row | SMILES | combination Emax [1] | combination Emax [2] | combination Emax [3] | combination Emax [4]
1 | C[C@@H]1COCCN1c1cc(C2([S@](C)(=N)=O)CC2)nc(-c2ccnc3[nH]ccc23)n1 [AZD6738] + O=C(c1cc(Cc2n[nH]c(=O)c3ccccc23)ccc1F)N1CCN(C(=O)C2CC2)CC1 [Olaparib] (first compound max 10 µM, 7x7, partner max 10 µM) | 0.63 | 0.839 | 0.417 | 0.847
2 | CC1(C)CCC(CN2CCN(c3ccc(C(=O)NS(=O)(=O)c4ccc(NCC5CCOCC5)c([N+](=O)[O-])c4)c(Oc4cnc5[nH]ccc5c4)c3)CC2)=C(c2ccc(Cl)cc2)C1 [Venetoclax] + C[C@@H](Nc1cc(F)cc(F)c1)c1cc(C(=O)N(C)C)cc2c(=O)cc(N3CCOCC3)oc12 [AZD8186] (first compound max 1 µM, 7x7, partner max 3 µM) | 0.167 | 0.187 | 0.456 | 0.45
3 | CC(=O)Nc1cccc(-n2c(=O)n(C3CC3)c(=O)c3c(Nc4ccc(I)cc4F)n(C)c(=O)c(C)c32)c1 [Trametinib] + Cc1nc(-c2cn3c(n2)-c2ccc(-c4cnn(C(C)(C)C(N)=O)c4)cc2OCC3)n(C(C)C)n1 [Taselisib] (first compound max 1 µM, 7x7, partner max 10 µM) | 0.588 | 0.722 | 0.676 | 0.955
4 | COc1nnc2ccc(N3CCC(c4ccc(OCCN5CCN(C)C(=O)[C@H]5C)cc4)CC3)nn12 [AZD5153] + C=CCn1c(=O)c2cnc(Nc3ccc(N4CCN(C)CC4)cc3)nc2n1-c1cccc(C(C)(C)O)n1 [AZD1775] (first compound max 1 µM, partner max 1 µM) | 0.593 | 0.665 | 0.687 | 0.711
5 | CC1(C)CCC(CN2CCN(c3ccc(C(=O)NS(=O)(=O)c4ccc(NCC5CCOCC5)c([N+](=O)[O-])c4)c(Oc4cnc5[nH]ccc5c4)c3)CC2)=C(c2ccc(Cl)cc2)C1 [Venetoclax] + Cc1cc2ncnn2cc1Nc1ncc2c(n1)n(C1CCOCC1)c(=O)n2C [AZD7648] (first compound max 1 µM, 7x7, partner max 10 µM) | 0.158 | 0.242 | 0.257 | 0.416
